Laboratory results published in patent US10703748B2, “Diazanaphthalen-3-yl carboxamides and preparation and use thereof” (Samumed, LLC, priority 2017, dated 2020).
Where two headings read alike, the source gives them in different places.

Legend:
DYRK1A kinase = DYRK1A kinase (Homo sapiens, UniProt Q13627); test: DYRK1A kinase activity (Ser/Thr 18 peptide Z-lyte FRET assay); assay type: biochemical; conditions: recombinant DYRK1A, 30 μM ATP, one hour at room temperature;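 also: kinase activity read as coumarin/fluorescein emission ratio after development step, with unphosphorylated and phosphorylated peptide forms setting 0% and 100% controls, values from dose-response curves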
GSK3β kinase = GSK3β kinase (Homo sapiens, UniProt P49841); test: GSK3β kinase activity (Ser/Thr 09 peptide Z-lyte FRET assay); assay type: biochemical; conditions: recombinant kinase, 46 μM ATP, one hour at room temperature; read-out: EC50
Sequence of GSK3β kinase (P49841 whole entry): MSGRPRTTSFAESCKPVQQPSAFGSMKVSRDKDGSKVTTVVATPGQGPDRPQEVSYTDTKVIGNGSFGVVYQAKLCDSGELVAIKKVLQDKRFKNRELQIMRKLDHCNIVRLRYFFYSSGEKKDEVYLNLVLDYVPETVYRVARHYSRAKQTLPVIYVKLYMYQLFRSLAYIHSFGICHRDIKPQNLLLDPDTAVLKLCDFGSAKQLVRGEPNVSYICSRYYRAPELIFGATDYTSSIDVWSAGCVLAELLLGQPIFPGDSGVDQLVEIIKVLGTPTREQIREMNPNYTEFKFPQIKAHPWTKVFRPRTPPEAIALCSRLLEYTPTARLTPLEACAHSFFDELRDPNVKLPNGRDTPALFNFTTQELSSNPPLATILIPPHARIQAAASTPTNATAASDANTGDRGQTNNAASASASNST

[1] = system: Tau phosphorylation at Ser396 (pSer396); test: Tau phosphorylation at Ser396 (pSer396) in SH-SY5Y cells, ELISA / western blot; assay type: cell-based, human; conditions: SH-SY5Y cells, overnight (16-18 h), read-out: pSer396 Tau EC50;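 also: decrease in pSer396 Tau measured in lysates of treated cells by colorimetric ELISA or chemiluminescent western blot, same pSer396 antibody for both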
Procedure: Two days before treatment, cells were seeded onto 96 well plates at 5×10^4 cells/well.
The above synthesized compounds were screened using the cell assay procedure to assess decrease Tau phosphorylation at Ser396 (pSer396) described below.
Cells were lysed with RIPA buffer complemented with phosphatase and protease inhibitors then lysates were spun down at 12,000 g for 10 min to remove any cellular debris.

[2] = system: secreted cytokines TNFα, IL-6 and KC-GRO; test: Secreted cytokines in Lipopolysaccharide-stimulated BV-2 cells (Table 9 does not say which cytokine); assay type: cell-based, mouse; conditions: read-out: EC50
[3] = system: SW480 colon carcinoma cells; test: Cell viability assay (CellTiter-Glo); conditions: for inhibition at 10 µM: SW480, read-out: percent inhibition at 10 μM
[4] = system: Wnt-responsive Sp5-Luc reporter in SW480 colon carcinoma cells; test: Screening assay for Wnt activity (Sp5-Luc reporter gene assay)
Procedure: The screening assay for Wnt activity is described as follows.
SW480 colon carcinoma cells were transduced with a lentiviral vector expressing luciferase with a human Sp5 promoter consisting of a sequence of eight TCF/LEF binding sites. […] These stably transduced SW480 cells were expanded in cell culture and used for all further screening activities. Each compound was dissolved in DMSO as a 10 mM stock and used to prepare compound source plates. Serial dilution (1:3, 10-point dose-response curves starting from 10 μM) and compound transfer was performed using the ECHO 550 (Labcyte, Sunnyvale, Calif.) into 384-well white solid bottom assay plates (Greiner Bio-One) with appropriate DMSO backfill for a final DMSO concentration of 0.1%. […] Following incubation, 15 μl of BriteLite Plus luminescence reagent (Perkin Elmer) was added to each well of the 384-well assay plates. The plates were placed on an orbital shaker for 2 min and then luminescence was quantified using the Envision (Perkin Elmer) plate reader.

IL-6 = IL-6 inhibition in LPS-stimulated human peripheral blood mononuclear cells (HTRF); conditions: for inhibition at 10 µM: read-out: percentage in parentheses after EC50 >10
[5] = system: α-smooth muscle actin (aSMA) positive LL29 cells; test: Inhibition of the fibrotic process: αSMA staining in TGF-β1 treated LL29 fibroblasts from IPF patients; conditions: for inhibition at 10 µM: read-out: percentage in parentheses after EC50 >10

| Structure (SMILES) | EC50 (DYRK1A kinase) [nM] | EC50 (GSK3β kinase) [nM] | EC50 ([1]; Homo sapiens) [nM] | EC50 ([2]; Mus musculus, BV-2, 5 h) [nM] | EC50 ([3]; Homo sapiens, SW480, 96 h) [nM] | inhibition at 10 µM ([3]; Homo sapiens) [%] | EC50 ([4]; Homo sapiens, SW480) [nM] | EC50 (IL-6; Homo sapiens, PBMC, 22 h) [nM] | EC50 ([5]; Homo sapiens, Fibroblast, 96 h) [nM] | inhibition at 10 µM ([5]; Homo sapiens, Fibroblast) [%] | EC50 [1] [nM] | EC50 ([2]; BV-2 cells, LPS 250 ng/mL 5 hours, compounds overnight, 10 μM to […], cytokine not named in Table 9) [nM] | EC50 ([3]; SW480 cells, four days, CellTiter-Glo) [nM] | EC50 ([4]; SW480 Sp5-Luc reporter cells, 36 to 48 hours) [nM] | percent inhibition at 10 μM ([4]; at 10 μM, given for EC50 of >10 μM, SW480 Sp5-Luc reporter) [%] | EC50 (IL-6; huPBMCs, LPS 50 ng/mL, 22 hours, curves starting from 10 μM) [nM] | percentage in parentheses after EC50 >10 (IL-6; huPBMCs, LPS, given beside >10 μM, meaning not given) [%] | EC50 ([5]; LL29 fibroblasts from IPF patients, TGF-β1 20 ng/mL, 4 days, curves from 10 μM to 0.94 nM) [nM] | inhibition at 10 µM ([4]; Homo sapiens, SW480, read-out: percent inhibition at 10 μM) [%] | inhibition at 10 µM (IL-6; Homo sapiens, PBMC) [%] |
| --- | --- | --- | --- | --- | --- | --- | --- | --- | --- | --- | --- | --- | --- | --- | --- | --- | --- | --- | --- | --- |
| Cn1cc(-c2ccc3cnc(NC(=O)C4CCN(Cc5ncco5)CC4)cc3n2)cn1 [Compound 95, N-(2-(1-Methyl-1H-pyrazol-4-yl)-1,6-naphthyridin-7-yl)-1-(oxazol-2-ylmethyl)piperidine-4-carboxamide] | 6 | 84 | 1700 | 66 | > 10000 | 38.6 | 1540 | 9090 | 444 | – | – | – | – | – | – | – | – | – | – | – |
| Cn1cc(-c2ccc3cnc(NC(=O)C4CCN(Cc5ncccn5)CC4)cc3n2)cn1 [Compound 99, N-(2-(1-Methyl-1H-pyrazol-4-yl)-1,6-naphthyridin-7-yl)-1-(pyrimidin-2-ylmethyl)piperidine-4-carboxamide] | 9 | 180 | 967 | 177 | > 10000 | 37 | 1310 | 8600 | 4060 | – | – | – | – | – | – | – | – | – | – | – |
| CC(C(=O)Nc1cc2nc(-c3cnn(C)c3)ccc2cn1)N1CCCCC1 (stereo not drawn) [Compound 112, N-(2-(1-Methyl-1H-pyrazol-4-yl)-1,6-naphthyridin-7-yl)-2-(piperidin-1-yl)propanamide] | 88 | 62 | 1100 | 5400 | 7790 | – | 3650 | 9400 | > 10000 | 13.8 | – | – | – | – | – | – | – | – | – | – |
| CC(C)CN1CCC(CC(=O)Nc2cc3nc(-c4cnn(C)c4)ccc3cn2)C1 (stereo not drawn) [Compound 122, 2-(1-Isobutylpyrrolidin-3-yl)-N-(2-(1-methyl-1H-pyrazol-4-yl)-1,6-naphthyridin-7-yl)acetamide] | 16 | 70 | 481 | 590 | 3110 | – | 2540 | 3170 | 4020 | – | – | – | – | – | – | – | – | – | – | – |
| Cn1cc(-c2ccc3cnc(NC(=O)CCc4ccccc4)cc3n2)cn1 [Compound 194, N-(2-(1-Methyl-1H-pyrazol-4-yl)-1,6-naphthyridin-7-yl)-3-phenylpropanamide] | 23 | 17 | 3000 | 819 | 7620 | – | 596 | 8940 | 935 | – | – | – | – | – | – | – | – | – | – | – |
| O=C(Nc1cc2nc(-c3cnn4c3CN(CCF)CC4)ccc2cn1)C1CCC(F)(F)CC1 [Compound 317] | – | – | – | – | – | – | – | – | – | – | 35 | 66 | 3530 | > 10000 | 50.0 | > 10000 | 8.0 | 935 | – | – |
| Cc1nnc(-c2cc3cc(NC(=O)C4CCN(C(=O)c5ccccc5)CC4)ncc3cn2)s1 [Compound 4346, 1-Benzoyl-N-(6-(5-methyl-1,3,4-thiadiazol-2-yl)-2,7-naphthyridin-3-yl) piperidine-4-carboxamide] | 37 | 135 | 1540 | – | > 10000 | 12.2 | > 10000 | > 10000 | > 10000 | 21.4 | – | – | – | – | – | – | – | – | 3.8 | 2.4 |
| O=C(Nc1cc2cc(-c3cncc(NCC4(F)CNC4)n3)ncc2cn1)C1CC1 [Compound 4498, N-(6-(6-(((3-Fluoroazetidin-3-yl)methyl)amino)pyrazin-2-yl)-2,7-naphthyridin-3-yl)cyclopropanecarboxamide] | 2 | 1 | 37 | – | 799 | – | 383 | 3090 | 436 | – | – | – | – | – | – | – | – | – | – | – |
| Cn1cc(-c2ccc3cnc(NC(=O)c4ccc(OC5CCNCC5)cc4)nc3c2)nn1 [Compound 4573, N-(7-(1-Methyl-1H-1,2,3-triazol-4-yl)quinazolin-2-yl)-4-(piperidin-4-yloxy) benzamide] | 6 | 161 | 10000 | – | 2700 | – | 3230 | > 10000 | > 10000 | 9.3 | – | – | – | – | – | – | – | – | – | 9.6 |
